Assay results reported in US7186831B2, “5-halo-2-alkyl[1,2,4]triazolo[1,5-a]pyrimidin-7-amines” (priority 2001, dated 2007).

Assay: log P by HPLC
Assay type: physicochemical
Details: EEC directive 79/831 Annex V. A8 by HPLC (gradient method, acetonitrile/0.1% aqueous phosphoric acid)

| logP | Structure (SMILES) |
| --- | --- |
| 3.02 | Fc1cc(F)c(-c2c(Cl)nc3nc(C4CC4)nn3c2N2CCOCC2)c(F)c1 [compound 475] |
| 4.61 | CC1CCCCN1c1c(-c2ccccc2Cl)c(Cl)nc2nc(C3CC3)nn12 (centres unmarked) [compound 499] |
| 2.93 | Cc1nc2nc(Cl)c(-c3ccccc3F)c(NOCc3ccccc3)n2n1 [compound 363] |
| 3.27 | Cc1nc2nc(Cl)c(-c3c(F)cccc3F)c(NCC(C)(C)C)n2n1 [compound 329] |
| 2.85 | Cc1nc2nc(Cl)c(-c3c(F)cccc3F)c(N3CCC(F)CC3)n2n1 [compound 443] |
| 2.93 | Cc1nc2nc(Cl)c(-c3c(F)cccc3F)c(NOCc3ccccc3)n2n1 [compound 427] |
| 2.2 | Cc1nc2nc(Cl)c(-c3ccc(F)cc3F)c(N3CCCC(O)C3)n2n1 (centres unmarked) [compound 452] |
| 4.16 | Cc1nc2nc(Cl)c(-c3ccccc3F)c(NC(C)C3CCCCC3)n2n1 (centres unmarked) [compound 396] |
| 1.37 | CCN(CCN(C)C)c1c(-c2ccc(F)cc2F)c(Cl)nc2nc(C)nn12 [compound 353] |
| 3.42 | CCN(CC(F)(F)F)c1c(-c2c(F)cc(F)cc2F)c(Cl)nc2nc(C)nn12 [compound 380] |
| 2.48 | CCOC(=O)CN(C)c1c(-c2c(F)cccc2Cl)c(Cl)nc2nc(C)nn12 [compound 272] |
| 2.34 | Cc1nc2nc(Cl)c(-c3ccccc3F)c(N(C)C)n2n1 [compound 381] |
| 3.34 | C=C(C)CNc1c(-c2c(F)cc(F)cc2F)c(Cl)nc2nc(C3CC3)nn12 [compound 466] |
| 3.22 | Cc1nc2nc(Cl)c(-c3c(F)cccc3F)c(N3CCc4ccccc4C3)n2n1 [compound 327] |
| 3.36 | COC(=O)C1CCCCN1c1c(-c2ccc(F)cc2F)c(Cl)nc2nc(C)nn12 (centres unmarked) [compound 453] |
| 2.34 | Cc1nc2nc(Cl)c(-c3ccc(F)cc3F)c(N(C)CCC#N)n2n1 [compound 411] |
| 3.74 | Fc1cc(F)c(-c2c(Cl)nc3nc(C4CC4)nn3c2N2CCCCO2)c(F)c1 [compound 485] |

| logP | Structure (SMILES) |
| --- | --- |
| 2.56 | Cc1nc2nc(Cl)c(-c3c(F)cccc3F)c(NCC(F)(F)F)n2n1 [compound 424] |
| 3.34 | Cc1nc2nc(Cl)c(-c3c(F)cccc3F)c(NC(C)(C)C(F)(F)F)n2n1 [compound 421] |
| 2.03 | CONc1c(-c2ccccc2F)c(Cl)nc2nc(C)nn12 [compound 376] |
| 2.16 | Cc1nc2nc(Cl)c(-c3ccccc3F)c(N3CCOCC3)n2n1 [compound 388] |
| 3.78 | CC(C)(C)OC(=O)NC1CCN(c2c(-c3ccc(F)cc3F)c(Cl)nc3nc(C4CC4)nn23)CC1 [compound 514] |
| 2.68 | Cc1nc2nc(Cl)c(-c3ccc(F)cc3F)c(NCC(F)(F)F)n2n1 [compound 406] |
| 3.76 | CC(C)CNc1c(-c2ccccc2Cl)c(Cl)nc2nc(C3CC3)nn12 [compound 492] |
| 2.7 | Cc1nc2nc(Cl)c(-c3ccccc3F)c(NCCC(F)(F)F)n2n1 [compound 395] |
| 2.72 | Cc1nc2nc(Cl)c(-c3ccccc3F)c(NCC3CC3)n2n1 [compound 393] |
| 3.15 | Cc1nc2nc(Cl)c(-c3c(F)cccc3F)c(N3CCC(NC(=O)OC(C)(C)C)CC3)n2n1 [compound 321] |
| 3.99 | CC1CCCN1c1c(-c2ccccc2Cl)c(Cl)nc2nc(C3CC3)nn12 (centres unmarked) [compound 498] |
| 3.64 | Cc1nc2nc(Cl)c(-c3c(F)cccc3F)c(N3CCC(C)CC3)n2n1 [compound 313] |
| 2.98 | CCCCONc1c(-c2ccccc2F)c(Cl)nc2nc(C)nn12 [compound 372] |
| 3.9 | Fc1cc(F)c(-c2c(Cl)nc3nc(C4CC4)nn3c2NC2CCCC2)c(F)c1 [compound 463] |
| 2.52 | Cc1nc2nc(Cl)c(-c3c(F)cccc3F)c(N(O)C(C)C)n2n1 [compound 426] |
| 3.44 | Cc1nc2nc(Cl)c(-c3c(F)cccc3F)c(NOCc3ccc(C(F)(F)F)cc3)n2n1 [compound 430] |

Same assay, conditions: HPLC, gradient method, acetonitrile/0.1% aqueous phosphoric acid; EEC directive 79/831 Annex V. A8

| logP | Structure (SMILES) |
| --- | --- |
| 3.69 | Fc1ccc(Nc2c(-c3ccc(F)cc3F)c(Cl)nc3nc(C(F)(F)F)nn23)cc1 [compound 814] |
| 3.29 | Cc1nc2nc(Cl)c(-c3c(F)cccc3Cl)c(NC3CCCC3)n2n1 [compound 255] |
| 3.63 | Fc1ccc(-c2c(Cl)nc3nc(C4CC4)nn3c2NCC2CC2)c(Cl)c1 [compound 625] |
| 4.54 | CC1CCCCN1c1c(-c2c(F)cccc2Cl)c(Cl)nc2nc(C3CC3)nn12 (centres unmarked) [compound 705] |
| 2.17 | CC(=O)NC1CCN(c2c(-c3ccc(F)cc3F)c(Cl)nc3nc(C4CC4)nn23)C1 (centres unmarked) [compound 728] |
| 2.28 | Cc1nc2nc(Cl)c(-c3c(F)cccc3F)c(NC3CC3)n2n1 [compound 178] |
| 3.15 | C=C(C)CNc1c(-c2c(F)cc(F)cc2F)c(Cl)nc2nc(CC)nn12 [compound 21] |
| 3.01 | CCC(C)Nc1c(-c2ccc(F)cc2F)c(Cl)nc2nc(C)nn12 (centres unmarked) [compound 194] |
| 4.6 | CC1CCCCN1c1c(-c2c(F)cc(F)cc2F)c(Cl)nc2nc(C3CC3)nn12 (centres unmarked) [compound 674] |
| 4.59 | CC1CCN(c2c(-c3c(F)cccc3Cl)c(Cl)nc3nc(C4CC4)nn23)CC1 [compound 706] |
| 4.3 | CC1CCCCN1c1c(-c2ccc(F)cc2F)c(Cl)nc2nc(C3CC3)nn12 (centres unmarked) [compound 611] |
| 4.12 | CC(C)C(C)Nc1c(-c2c(F)cccc2Cl)c(Cl)nc2nc(C3CC3)nn12 (centres unmarked) [compound 583] |
| 2.12 | COCCNc1c(-c2c(F)cccc2F)c(Cl)nc2nc(C)nn12 [compound 177] |
| 4.09 | Fc1cc(F)c(-c2c(Cl)nc3nc(C(F)(F)F)nn3c2N2CCSCC2)c(F)c1 [compound 110] |
| 3.04 | Cc1nc2nc(Cl)c(-c3c(F)cc(F)cc3F)c(NC(C)C(F)(F)F)n2n1 (centres unmarked) [compound 69] |
| 2.22 | CCONc1c(-c2c(F)cccc2F)c(Cl)nc2nc(C)nn12 [compound 136] |
| 4 | CC(C)(C)CNc1c(-c2ccc(F)cc2F)c(Cl)nc2nc(C3CC3)nn12 [compound 646] |
| 2.68 | CCc1nc2nc(Cl)c(-c3c(F)cc(F)cc3F)c(NCCOC)n2n1 [compound 78] |
| 2.93 | CCN(CCOC)c1c(-c2c(F)cc(F)cc2F)c(Cl)nc2nc(C)nn12 [compound 29] |
| 3.26 | Fc1ccc(-c2c(Cl)nc3nc(C4CC4)nn3c2NCC2CC2)c(F)c1 [compound 656] |
| 3.6 | Cc1nc2nc(Cl)c(-c3c(F)cc(F)cc3F)c(N3CCC(C(F)(F)F)CC3)n2n1 [compound 67] |
| 2.78 | CCNc1c(-c2c(F)cc(F)cc2F)c(Cl)nc2nc(CC)nn12 [compound 91] |
| 3.08 | CCNc1c(-c2ccc(F)cc2F)c(Cl)nc2nc(C)nn12 [compound 687] |
| 3.53 | Fc1cc(F)c(-c2c(Cl)nc3nc(C(F)(F)F)nn3c2NC2CC2)c(F)c1 [compound 35] |
| 3.21 | Cc1nc2nc(Cl)c(-c3c(F)cccc3F)c(NOCc3cccc(Cl)c3)n2n1 [compound 137] |

| logP | Structure (SMILES) |
| --- | --- |
| 1.61 | CCCN(CCCN)c1c(-c2ccc(F)cc2F)c(Cl)nc2nc(C3CC3)nn12 [compound 726] |
| 3.09 | Cc1nc2nc(Cl)c(-c3c(F)cc(F)cc3F)c(N3CCSCC3)n2n1 [compound 66] |
| 4.44 | Fc1ccc(-c2c(Cl)nc3nc(C(F)(F)F)nn3c2NC2CCCC(C(F)(F)F)C2)c(F)c1 (centres unmarked) [compound 536] |
| 4.19 | Fc1cccc(Cl)c1-c1c(Cl)nc2nc(C3CC3)nn2c1N1CCCCC1 [compound 708] |
| 3.53 | CCc1nc2nc(Cl)c(-c3c(F)cc(F)cc3F)c(N3CCSCC3)n2n1 [compound 80] |
| 2.44 | CCNc1c(-c2c(F)cc(F)cc2F)c(Cl)nc2nc(C)nn12 [compound 87] |
| 3.99 | CCc1nc2nc(Cl)c(-c3c(F)cc(F)cc3F)c(N3CCC(C(F)(F)F)CC3)n2n1 [compound 2] |
| 1.77 | CN(C)CCN(C)c1c(-c2ccc(F)cc2F)c(Cl)nc2nc(C(F)(F)F)nn12 [compound 538] |
| 4.61 | CC(C)CC(C)Nc1c(-c2ccc(F)cc2Cl)c(Cl)nc2nc(C3CC3)nn12 (centres unmarked) [compound 637] |
| 4.24 | CC(C)CC(C)Nc1c(-c2ccc(F)cc2F)c(Cl)nc2nc(C3CC3)nn12 (centres unmarked) [compound 660] |
| 4.07 | CC(C)CN(C)c1c(-c2ccc(F)cc2F)c(Cl)nc2nc(C3CC3)nn12 [compound 668] |
| 2.54 | CON(C)c1c(-c2c(F)cccc2F)c(Cl)nc2nc(C)nn12 [compound 143] |
| 2.34 | COCCNc1c(-c2c(F)cc(F)cc2F)c(Cl)nc2nc(C)nn12 [compound 64] |
| 4.04 | Cc1cccc(Nc2c(-c3ccc(F)cc3F)c(Cl)nc3nc(C(F)(F)F)nn23)c1 [compound 812] |
| 2.56 | Cc1nc2nc(Cl)c(-c3ccc(F)cc3F)c(N(C)CC3OCCO3)n2n1 [compound 202] |
| 3.5 | Cc1nc2nc(Cl)c(-c3c(F)cc(F)cc3F)c(NCC(C)(C)C)n2n1 [compound 146] |
| 3.46 | CCN(CCC#N)c1c(-c2ccc(F)cc2F)c(Cl)nc2nc(C(F)(F)F)nn12 [compound 550] |
| 3.9 | Fc1cccc(F)c1-c1c(Cl)nc2nc(C3CC3)nn2c1N1CCCCC1 [compound 682] |
| 4.11 | CN(Cc1ccco1)c1c(-c2ccc(F)cc2F)c(Cl)nc2nc(C(F)(F)F)nn12 [compound 543] |
| 3.26 | CCN(CC1CCCO1)c1c(-c2c(F)cc(F)cc2F)c(Cl)nc2nc(C)nn12 (centres unmarked) [compound 159] |
| 4.23 | Fc1ccc(-c2c(Cl)nc3nc(C4CC4)nn3c2N2CCCC2C(F)(F)F)c(Cl)c1 (centres unmarked) [compound 639] |
| 4.1 | CC1CN(c2c(-c3ccc(F)cc3F)c(Cl)nc3nc(C(F)(F)F)nn23)CC(C)O1 (centres unmarked) [compound 808] |
| 3.39 | Cc1nc2nc(Cl)c(-c3c(F)cccc3F)c(NC3CCC(C(F)(F)F)CC3)n2n1 (centres unmarked) [compound 190] |
| 2.49 | Cc1nc2nc(Cl)c(-c3c(F)cc(F)cc3F)c(N(C)C)n2n1 [compound 86] |
| 3.71 | Cc1nc2nc(Cl)c(-c3ccc(Cl)cc3Cl)c(N(N)CC(C)C)n2n1 [compound 816] |
